Assay type in all cases: in vivo
The subject of test [1] is Venturia inaequalis (VENTIN). In words: One day protectant (1 DP) test, Apple Scab. The settings on record: 0.1 percent Spraymate X77 + 0.1 percent ammonium sulfate.
For test [2], the system named is Venturia inaequalis (VENTIN). In words: Curative test, Apple Scab (compound added 2 days after inoculation). To be noted: curative at 200 ppm.
The subject of test [3] is Puccinia recondita f. sp. tritici (PUCCRT). Briefly: Drop Line Test on wheat leaf, Brown Rust of Wheat. The settings on record: Drop Line Test 0.5 μg/leaf, 2 microliter drop. Here is the method:
Wheat (cultivar Monon) was grown in plastic pots (6.2 cm×8.75 cm) containing 50 percent mineral soil, 50 percent Metro-Mix 360 (W.R Grace and Co.) until the seedlings were 10-20 cm tall. These plants were then sprayed to runoff with the test compound at a rate of 200 ppm. After 24 hours the test plants were inoculated by spraying with an aqueous spore suspension of Puccinia recondita f. sp. tritici (PUCCRT). The plants were then transferred to a dew chamber for 24 hours, then to the greenhouse until disease developed on the untreated control plants. In Example 3, a Drop Line Test was used, wherein instead of spraying the plant to runoff, a 2 microliter drop was placed on the wheat leaf and observed for disease control.

`NC[C@@H]1NC(=O)C(C(=O)CC(NC(=O)[C@@H](N)CO)(C(=O)O)C(=O)O)=C1O` [Compound I, {[(2S)-2-amino-3-hydroxypropanoyl]amino}{2-[(5S)-5-(aminomethyl)-4-hydroxy-2-oxo-2,5-dihydro-1H-pyrrol-3-yl]-2-oxoethyl}malonic acid]: the “VENTIN percent control of plant disease” value in test [1] (50 ppm and 100 ppm) is “++ (++ = 75-100 percent control of plant disease)”; in test [1] (rate 200 ppm), “+ (+ = 30-74 percent control of plant disease)”. Further, the “VENTIN percent control of plant disease, curative” value in test [2] is “++^α (++ = 75-100 percent control of plant disease)”.

With `C[C@H](N)C(=O)NC(CC(=O)O)(CC(=O)C1=C(O)[C@H](CN)NC1=O)C(=O)O` (stereo partly shown) [Compound III], the “PUCCRT percent control of plant disease, Drop Line Test” value in test [3] was “+ (+ = 30-74 percent control of plant disease)”.

For the origin of these results see US7887827B2, “Use of malonomicin and analogs in fungicidal applications” (Dow AgroSciences LLC, priority 2006, dated 2011).
